Test results: publication PMC6542800 (Nature Communications, 2019)

Experiments:
[1] = target: T1, Curled (NOCT ortholog), full-length, Curled 1-419 (Drosophila melanogaster, UniProt A8JQX3); assay: ion-exchange chromatography, UV […] nm; type: biochemical; conditions: 22 °C, 20 mM Tris-HCl pH 8.0, 70 mM NaCl, 2 mM MgCl2
T1 construct: gene cu; full length 1-419 of splicing form H; E. coli, pGEX-6P, GST tag removed with Prescission protease
T1 sequence (A8JQX3 224-642): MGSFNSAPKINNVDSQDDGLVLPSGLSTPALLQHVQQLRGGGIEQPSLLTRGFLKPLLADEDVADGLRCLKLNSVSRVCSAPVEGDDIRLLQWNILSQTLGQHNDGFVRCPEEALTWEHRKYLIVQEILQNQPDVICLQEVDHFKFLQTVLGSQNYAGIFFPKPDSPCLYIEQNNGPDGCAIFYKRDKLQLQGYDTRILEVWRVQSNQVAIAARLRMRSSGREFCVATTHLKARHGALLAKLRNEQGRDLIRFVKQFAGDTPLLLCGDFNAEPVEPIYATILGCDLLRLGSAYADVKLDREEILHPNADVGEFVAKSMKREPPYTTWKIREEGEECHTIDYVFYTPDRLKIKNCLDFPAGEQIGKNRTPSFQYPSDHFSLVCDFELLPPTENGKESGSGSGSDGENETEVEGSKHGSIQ

[2] = target: T2, NOCT (122-431), catalytic domain of human NOCT (Homo sapiens, UniProt Q9UK39); assay: LC-MS/MS product detection; type: biochemical; conditions: 10 μM enzyme, 1 h at r.t.
T2 construct: catalytic domain, residues 122-431; E. coli BL21 (DE3)-CodonPlus RIPL, pGEX-6P, GST tag removed with Prescission protease
T2 sequence (Q9UK39 122-431): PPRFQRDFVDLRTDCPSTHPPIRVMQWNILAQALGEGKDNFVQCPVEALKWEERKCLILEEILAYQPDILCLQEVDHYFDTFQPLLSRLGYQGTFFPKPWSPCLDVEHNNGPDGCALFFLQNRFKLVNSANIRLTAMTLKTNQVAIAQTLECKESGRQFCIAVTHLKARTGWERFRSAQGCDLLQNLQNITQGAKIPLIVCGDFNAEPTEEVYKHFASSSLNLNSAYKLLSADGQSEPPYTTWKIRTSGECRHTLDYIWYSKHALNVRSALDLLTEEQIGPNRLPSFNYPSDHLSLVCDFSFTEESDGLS

[3] = target: T3, full-length (FL) human NOCT (Homo sapiens, UniProt Q9UK39); assay: ion-exchange chromatography, UV […] nm; type: biochemical; conditions: 22 °C, 20 mM Tris-HCl pH 8.0, 70 mM NaCl, 2 mM MgCl2; 1 mM substrate, 0.5 μM enzyme
T3 construct: E. coli, pGEX-6P, GST tag removed with Prescission protease
T3 sequence (Q9UK39 1-431): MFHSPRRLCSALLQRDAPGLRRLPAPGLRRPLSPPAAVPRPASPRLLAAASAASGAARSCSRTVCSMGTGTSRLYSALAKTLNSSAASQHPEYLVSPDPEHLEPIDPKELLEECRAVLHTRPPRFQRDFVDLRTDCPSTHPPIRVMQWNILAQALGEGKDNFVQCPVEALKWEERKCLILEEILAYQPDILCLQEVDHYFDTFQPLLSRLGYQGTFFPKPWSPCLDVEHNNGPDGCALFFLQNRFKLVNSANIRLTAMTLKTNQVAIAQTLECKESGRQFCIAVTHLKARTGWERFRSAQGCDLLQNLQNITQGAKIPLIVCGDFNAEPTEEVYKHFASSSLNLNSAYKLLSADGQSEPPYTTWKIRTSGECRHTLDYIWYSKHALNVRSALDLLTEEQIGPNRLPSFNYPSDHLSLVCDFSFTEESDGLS

purified protein = substrate: NC(=O)C1=CN([C@@H]2O[C@H](COP(=O)(O)OP(=O)(O)OC[C@H]3O[C@@H](n4cnc5c(N)ncnc54)[C@H](OP(=O)(O)O)[C@@H]3O)[C@@H](O)[C@H]2O)C=CC1; assay: purified protein; conditions: 22 °C, 20 mM Tris-HCl pH 8.0, 70 mM NaCl

**Q.** With `NC(=O)C1=CN([C@@H]2O[C@H](COP(=O)(O)OP(=O)(O)OC[C@H]3O[C@@H](n4cnc5c(N)ncnc54)[C@H](OP(=O)(O)O)[C@@H]3O)[C@@H](O)[C@H]2O)C=CC1` [NADPH] as the molecule, how does the “ion-exchange chromatography, UV 260 nm” value ([1]; 1 mM substrate, 500 nM enzyme) read?
**A.** In contrast, Curled readily cleaved NADPH (Fig. 5c; Supplementary Fig. 5b)

**Q.** Which “ion-exchange chromatography, UV 260 nm” value [1] does the source give for `NC(=O)c1ccc[n+]([C@@H]2O[C@H](COP(=O)(O)OP(=O)(O)OC[C@H]3O[C@@H](n4cnc5c(N)ncnc54)[C@H](OP(=O)(O)O)[C@@H]3O)[C@@H](O)[C@H]2O)c1` [NADP^+] here?
**A.** Curled cleaved both NADP^+ and NADPH, exhibiting a preference for NADPH

**Q.** And the LC-MS/MS product detection [2]?
**A.** converted NADPH into NADH and NADP^+ into NAD^+ (Fig. 1c)

**Q.** And the “ion-exchange chromatography, UV 260 nm” value [3]?
**A.** conversion of both NADP^+ and NADPH into NAD^+ and NADH, respectively by full-length (FL) NOCT

B1: NOCT (122-431), catalytic domain of human NOCT (Homo sapiens) (protein)
chain: PPRFQRDFVDLRTDCPSTHPPIRVMQWNILAQALGEGKDNFVQCPVEALKWEERKCLILEEILAYQPDILCLQEVDHYFDTFQPLLSRLGYQGTFFPKPWSPCLDVEHNNGPDGCALFFLQNRFKLVNSANIRLTAMTLKTNQVAIAQTLECKESGRQFCIAVTHLKARTGWERFRSAQGCDLLQNLQNITQGAKIPLIVCGDFNAEPTEEVYKHFASSSLNLNSAYKLLSADGQSEPPYTTWKIRTSGECRHTLDYIWYSKHALNVRSALDLLTEEQIGPNRLPSFNYPSDHLSLVCDFSFTEESDGLS
**Q.** Which kcat (purified protein; 2 mM MgCl2, 4.8 μM enzyme, printed range may span catalytic domain and full-length protein) does the source give for B1 here?
**A.** 3.6 s⁻¹

B2: full-length (FL) human NOCT (Homo sapiens) (protein)
chain: MFHSPRRLCSALLQRDAPGLRRLPAPGLRRPLSPPAAVPRPASPRLLAAASAASGAARSCSRTVCSMGTGTSRLYSALAKTLNSSAASQHPEYLVSPDPEHLEPIDPKELLEECRAVLHTRPPRFQRDFVDLRTDCPSTHPPIRVMQWNILAQALGEGKDNFVQCPVEALKWEERKCLILEEILAYQPDILCLQEVDHYFDTFQPLLSRLGYQGTFFPKPWSPCLDVEHNNGPDGCALFFLQNRFKLVNSANIRLTAMTLKTNQVAIAQTLECKESGRQFCIAVTHLKARTGWERFRSAQGCDLLQNLQNITQGAKIPLIVCGDFNAEPTEEVYKHFASSSLNLNSAYKLLSADGQSEPPYTTWKIRTSGECRHTLDYIWYSKHALNVRSALDLLTEEQIGPNRLPSFNYPSDHLSLVCDFSFTEESDGLS
**Q.** How did the kcat (purified protein; 2 mM MgCl2, printed range may span catalytic domain and full-length protein) turn out when B2 was run?
**A.** 34 s⁻¹
